In PubChem BioAssay (NCI):
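Compound exposure: 48 hours, 5 concentrations, 96-well plates. TGI: concentration producing complete growth inhibition.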

Experiments:
Experiment in all cases: NCI tumour cell line growth inhibition, 48 h
LXFL 529 NSCLC = tested on: LXFL 529 NSCLC
DMS 114 small cell lung = tested on: DMS 114 small cell lung
XF 498 CNS = tested on: XF 498 CNS
HOP-18 NSCLC = tested on: HOP-18 NSCLC
SNB-78 CNS = tested on: SNB-78 CNS
M19-MEL melanoma = tested on: M19-MEL melanoma
MDA-N = tested on: MDA-N
DMS 273 small cell lung = tested on: DMS 273 small cell lung
P388/ADR leukemia = tested on: P388/ADR leukemia
SN12K1 renal = tested on: SN12K1 renal
P388 leukemia = tested on: P388 leukemia
RXF-631 renal = tested on: RXF-631 renal

SMILES	TGI (LXFL 529 NSCLC) [µM]	TGI (DMS 114 small cell lung) [µM]	TGI (XF 498 CNS) [µM]	TGI (HOP-18 NSCLC) [µM]	TGI (SNB-78 CNS) [µM]	TGI (M19-MEL melanoma) [µM]	TGI (MDA-N) [µM]	TGI (DMS 273 small cell lung) [µM]	TGI (P388/ADR leukemia) [µM]	TGI (SN12K1 renal) [µM]	TGI (P388 leukemia) [µM]	TGI (RXF-631 renal) [µM]
Cc1occ2c1C(=O)CC1C2[C@@H](O)CC2C(C)(C)CCC[C@]12C (stereo partly drawn)	> 100	> 100	> 100	> 100	> 100	> 100						
CCOC(=O)c1c(NCc2ccccc2)n(-c2ccccc2)c(=S)n(-c2ccccc2)c1=O							> 100					
NCCC(=O)NC(Cc1cnc[nH]1)C(=O)O (stereo not drawn)							> 100					
COC/N=C(/N)NC#N	> 100	37.6		> 100	> 100	> 100		91.5				
COc1cc2c(cc1-c1coc3cc(OCC=C(C)C)ccc3c1=O)OCO2							28.5					
C=C(Br)CNCC(=C)Br							> 100					
CSCCCNC(=O)c1csc(-c2csc(CCNC(=O)CNC(=O)CNC(=O)CNC(=O)OC(C)(C)C)n2)n1							> 100					
O=NN(CCCl)C(=O)NC1CCC(=O)NC1=O (stereo not drawn)		814	265	1070	864	972	791	634	399	348	256	
CCCCCCCCCCCCCP(=O)(NCC(N)=O)OCC (stereo not drawn)	30.8	33.4	34.9	14.8	41.2	35.2						35.5
CN1CCc2c1nc(-c1cccnc1)c1c2N(C)CC1	> 100	> 100	> 100	> 100	> 100	> 100		> 100				> 100
CC(=O)Nc1ccc(C(=O)N2N=C(C)/C(=C/c3cccc([N+](=O)[O-])c3)C2=O)cc1		> 100		> 100	> 100	> 100		> 100				
Cn1nnc2c(C(N)=O)ncn2c1=O	> 100	> 100	> 100	> 100	> 100	> 100	> 100					
COCCOCOC(C)(C)[C@H](CCOC(C)=O)O[Si](c1ccccc1)(c1ccccc1)C(C)(C)C	> 100	55.4		> 100	97.4	43.2		26.3				43.1
C#CCSc1nc(N)c2ncn(C3OC(COP(=O)(O)O)C(O)C3O)c2n1 (stereo not drawn)			> 239	> 239	> 239	> 239		> 239				
O=[N+]([O-])c1ccc2c(Nc3ccccc3-c3ccccc3Nc3c4ccccc4nc4cc([N+](=O)[O-])ccc34)c3ccccc3nc2c1	> 35.1	27.3	4.98	> 100	> 100	19.8	3.29	> 82.9				> 82.9
O=C(O)COc1ccc(C(=O)/C(SS/C(C(=O)c2ccc(OCC(=O)O)c(Cl)c2Cl)=C2\C=C(c3ccc(Br)cc3)SS2)=C2/C=C(c3ccc(Br)cc3)SS2)c(Cl)c1Cl	8.98	6.76	9.89	39.9	36.5	> 100		> 100				
O=C(CCc1nc(=S)[nH][nH]1)Nc1cccc(C(F)(F)F)c1	> 100	> 100	> 100	> 100	> 100			> 100				
